Measurements taken from patent US20260137703A1, “2-AMINO-PYRIDO[2,3-D]PYRIMIDIN-7(8H)-ONE AND 7-AMINO-1-PYRIMIDO[4,5-D]PYRIMIDIN-2(1 H)-ONE DERIVATIVES AS EGFR INHIBITORS FOR THE TREATMENT OF CANCER” (Cancer Research Technology Limited, priority 2022, published 2026).

Key:
[1] = target: T1, Phospho-EGFR (Tyr1068) in H1975 cells (Homo sapiens, UniProt P00533, L858R/T790M); assay: HTRF pEGFR/total EGFR in H1975 cells; assay type: cell-based; settings: ratio pEGFR/total EGFR, compound 3 hours
T1 construct: host or cells: H1975
T1 sequence (P00533 25-1210 T790M/L858R): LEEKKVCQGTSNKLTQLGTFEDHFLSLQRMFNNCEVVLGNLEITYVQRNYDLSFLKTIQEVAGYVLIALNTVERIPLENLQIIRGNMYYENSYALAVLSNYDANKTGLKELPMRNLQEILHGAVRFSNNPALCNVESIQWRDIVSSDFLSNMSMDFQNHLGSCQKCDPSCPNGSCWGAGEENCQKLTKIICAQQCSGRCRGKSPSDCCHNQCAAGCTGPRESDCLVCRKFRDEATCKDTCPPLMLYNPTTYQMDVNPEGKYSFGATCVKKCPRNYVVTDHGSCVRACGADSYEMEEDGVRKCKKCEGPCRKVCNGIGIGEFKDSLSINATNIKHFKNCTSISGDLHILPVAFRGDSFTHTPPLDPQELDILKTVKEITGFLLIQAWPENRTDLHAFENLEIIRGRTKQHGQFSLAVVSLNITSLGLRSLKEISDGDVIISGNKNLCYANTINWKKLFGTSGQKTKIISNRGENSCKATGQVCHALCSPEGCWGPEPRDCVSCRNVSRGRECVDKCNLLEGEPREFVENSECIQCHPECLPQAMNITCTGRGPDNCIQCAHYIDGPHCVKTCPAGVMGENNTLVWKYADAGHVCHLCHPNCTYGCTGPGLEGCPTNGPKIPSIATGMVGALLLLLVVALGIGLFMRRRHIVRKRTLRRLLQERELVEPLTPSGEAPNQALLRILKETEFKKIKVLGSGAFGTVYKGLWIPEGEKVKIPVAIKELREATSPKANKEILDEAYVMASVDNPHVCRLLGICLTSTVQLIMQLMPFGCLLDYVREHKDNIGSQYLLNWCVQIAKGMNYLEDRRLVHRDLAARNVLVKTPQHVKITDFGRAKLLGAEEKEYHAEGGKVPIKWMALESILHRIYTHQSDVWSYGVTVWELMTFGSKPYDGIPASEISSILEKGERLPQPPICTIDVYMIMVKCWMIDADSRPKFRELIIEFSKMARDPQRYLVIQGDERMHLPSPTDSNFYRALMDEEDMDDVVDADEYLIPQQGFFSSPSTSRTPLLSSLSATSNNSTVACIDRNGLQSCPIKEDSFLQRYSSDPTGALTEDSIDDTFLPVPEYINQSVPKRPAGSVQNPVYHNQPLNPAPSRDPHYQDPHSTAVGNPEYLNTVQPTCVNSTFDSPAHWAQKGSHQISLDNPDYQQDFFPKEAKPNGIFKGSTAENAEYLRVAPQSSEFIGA
Procedure, shortened: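 H1975 cells (EGFR L858R/T790M) treated 3 h with compound in 0.1% DMSO, in duplicate, 24 h after plating. Lysates assayed by HTRF for pEGFR (Tyr1068) and total EGFR at 665/620 nm; values are pEGFR/total EGFR ratio as percent of 0 μM control.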

[2] = target: T2, Phospho-EGFR (Tyr1068) in A431 cells (Homo sapiens, UniProt P00533); assay: HTRF pEGFR/total EGFR in A431 cells with EGF stimulation; assay type: cell-based; settings: ratio pEGFR/total EGFR, compound 2.5 hours then 100 ng/ml EGF 30 mins
T2 construct: endogenous in cells; host or cells: A431
T2 sequence (P00533 25-1210): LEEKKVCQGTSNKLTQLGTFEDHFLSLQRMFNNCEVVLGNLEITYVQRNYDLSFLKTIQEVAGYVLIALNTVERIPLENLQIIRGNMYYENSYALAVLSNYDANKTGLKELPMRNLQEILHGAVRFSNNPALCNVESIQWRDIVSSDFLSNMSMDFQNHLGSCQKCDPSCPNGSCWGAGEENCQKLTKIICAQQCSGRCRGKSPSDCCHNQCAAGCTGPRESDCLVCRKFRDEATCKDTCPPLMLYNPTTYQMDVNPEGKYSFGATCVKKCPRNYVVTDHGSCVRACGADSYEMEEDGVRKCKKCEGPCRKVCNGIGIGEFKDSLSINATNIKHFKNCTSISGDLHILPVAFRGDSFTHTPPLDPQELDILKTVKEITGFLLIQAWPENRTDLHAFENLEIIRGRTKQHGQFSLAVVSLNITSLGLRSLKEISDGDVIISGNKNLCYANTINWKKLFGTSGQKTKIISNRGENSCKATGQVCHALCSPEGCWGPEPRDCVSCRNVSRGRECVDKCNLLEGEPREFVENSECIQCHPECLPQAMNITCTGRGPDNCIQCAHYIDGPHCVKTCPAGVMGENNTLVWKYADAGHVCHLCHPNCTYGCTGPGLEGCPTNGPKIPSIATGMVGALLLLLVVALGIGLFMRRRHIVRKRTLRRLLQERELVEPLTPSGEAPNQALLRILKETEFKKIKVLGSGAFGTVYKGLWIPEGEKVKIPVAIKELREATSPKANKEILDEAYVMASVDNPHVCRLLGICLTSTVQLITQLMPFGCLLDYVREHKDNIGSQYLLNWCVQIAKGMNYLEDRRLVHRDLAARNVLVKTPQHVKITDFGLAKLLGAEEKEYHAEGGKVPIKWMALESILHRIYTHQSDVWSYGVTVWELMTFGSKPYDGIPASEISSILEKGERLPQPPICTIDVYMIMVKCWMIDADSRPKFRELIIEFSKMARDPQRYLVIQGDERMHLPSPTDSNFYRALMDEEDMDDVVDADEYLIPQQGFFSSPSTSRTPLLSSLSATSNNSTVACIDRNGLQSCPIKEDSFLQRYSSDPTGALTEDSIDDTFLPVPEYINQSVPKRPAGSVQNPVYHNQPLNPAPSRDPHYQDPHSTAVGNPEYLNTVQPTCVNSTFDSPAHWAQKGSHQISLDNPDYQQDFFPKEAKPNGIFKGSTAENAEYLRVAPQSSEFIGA
Procedure, shortened: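 A431 cells were plated at 20,000 per well, allowed 24 h to adhere, then given compound for 2.5 h (0.1% DMSO final). They were then stimulated with 100 ng/ml EGF for 30 min and lysed. HTRF measured Tyr1068-phospho and total EGFR at 665/620 nm, with pEGFR/total EGFR expressed as % of the 0 μM control.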

[3] = target: T3, Phospho-EGFR (Tyr1068) in H1975 C797S cells (CRISPR-edited EGFR C797S) (Homo sapiens, UniProt P00533, C797S/L858R/T790M); assay: HTRF pEGFR/total EGFR in H1975 C797S cells; assay type: cell-based; settings: ratio pEGFR/total EGFR, compound 3 hours
T3 construct: host or cells: H1975 C797S (CRISPR-edited)
T3 sequence (P00533 25-1210 T790M/C797S/L858R): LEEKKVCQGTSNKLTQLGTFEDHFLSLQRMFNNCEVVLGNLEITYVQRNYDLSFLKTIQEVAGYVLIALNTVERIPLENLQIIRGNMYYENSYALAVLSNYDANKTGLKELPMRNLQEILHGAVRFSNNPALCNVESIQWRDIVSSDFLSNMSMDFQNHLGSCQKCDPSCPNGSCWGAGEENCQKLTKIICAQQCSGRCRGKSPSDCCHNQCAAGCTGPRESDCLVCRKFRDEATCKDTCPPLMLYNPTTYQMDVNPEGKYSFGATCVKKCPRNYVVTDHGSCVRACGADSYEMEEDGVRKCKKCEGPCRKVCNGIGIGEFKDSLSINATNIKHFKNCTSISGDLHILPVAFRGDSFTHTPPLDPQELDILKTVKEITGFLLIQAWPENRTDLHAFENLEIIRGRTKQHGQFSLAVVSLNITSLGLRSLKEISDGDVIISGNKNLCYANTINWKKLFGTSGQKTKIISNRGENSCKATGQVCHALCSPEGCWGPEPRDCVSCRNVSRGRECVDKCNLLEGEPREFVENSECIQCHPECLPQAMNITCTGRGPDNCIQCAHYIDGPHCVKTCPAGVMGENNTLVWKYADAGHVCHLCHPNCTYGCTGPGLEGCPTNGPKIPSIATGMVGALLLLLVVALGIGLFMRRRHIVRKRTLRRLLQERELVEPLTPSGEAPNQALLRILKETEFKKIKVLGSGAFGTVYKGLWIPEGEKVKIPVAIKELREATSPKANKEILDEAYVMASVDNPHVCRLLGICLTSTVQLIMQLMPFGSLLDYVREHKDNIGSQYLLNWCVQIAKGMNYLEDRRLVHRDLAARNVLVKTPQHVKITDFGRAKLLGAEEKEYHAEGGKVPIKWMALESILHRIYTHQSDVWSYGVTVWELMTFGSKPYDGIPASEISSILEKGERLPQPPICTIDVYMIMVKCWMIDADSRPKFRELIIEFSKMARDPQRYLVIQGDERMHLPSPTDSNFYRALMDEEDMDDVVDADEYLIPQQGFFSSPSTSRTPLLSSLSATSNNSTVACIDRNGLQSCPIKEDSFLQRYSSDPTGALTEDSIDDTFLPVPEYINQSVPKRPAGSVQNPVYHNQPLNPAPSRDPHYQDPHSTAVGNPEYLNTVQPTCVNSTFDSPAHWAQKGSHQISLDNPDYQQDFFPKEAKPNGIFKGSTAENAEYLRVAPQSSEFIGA
Procedure, shortened: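 Adhered H1975 C797S cells got compound for 3 h in duplicate at 0.1% DMSO final, then were lysed 30 min at room temperature. HTRF kits quantified phospho-EGFR (Tyr1068) and total EGFR (665/620 nm); results are pEGFR/total EGFR ratio as percent of 0 μM control.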

[4] = target: CtermHisTag-mEGFR Wild type (Homo sapiens, UniProt P00533); assay: biochemical
CtermHisTag-mEGFR Wild type, sequence (P00533 whole entry): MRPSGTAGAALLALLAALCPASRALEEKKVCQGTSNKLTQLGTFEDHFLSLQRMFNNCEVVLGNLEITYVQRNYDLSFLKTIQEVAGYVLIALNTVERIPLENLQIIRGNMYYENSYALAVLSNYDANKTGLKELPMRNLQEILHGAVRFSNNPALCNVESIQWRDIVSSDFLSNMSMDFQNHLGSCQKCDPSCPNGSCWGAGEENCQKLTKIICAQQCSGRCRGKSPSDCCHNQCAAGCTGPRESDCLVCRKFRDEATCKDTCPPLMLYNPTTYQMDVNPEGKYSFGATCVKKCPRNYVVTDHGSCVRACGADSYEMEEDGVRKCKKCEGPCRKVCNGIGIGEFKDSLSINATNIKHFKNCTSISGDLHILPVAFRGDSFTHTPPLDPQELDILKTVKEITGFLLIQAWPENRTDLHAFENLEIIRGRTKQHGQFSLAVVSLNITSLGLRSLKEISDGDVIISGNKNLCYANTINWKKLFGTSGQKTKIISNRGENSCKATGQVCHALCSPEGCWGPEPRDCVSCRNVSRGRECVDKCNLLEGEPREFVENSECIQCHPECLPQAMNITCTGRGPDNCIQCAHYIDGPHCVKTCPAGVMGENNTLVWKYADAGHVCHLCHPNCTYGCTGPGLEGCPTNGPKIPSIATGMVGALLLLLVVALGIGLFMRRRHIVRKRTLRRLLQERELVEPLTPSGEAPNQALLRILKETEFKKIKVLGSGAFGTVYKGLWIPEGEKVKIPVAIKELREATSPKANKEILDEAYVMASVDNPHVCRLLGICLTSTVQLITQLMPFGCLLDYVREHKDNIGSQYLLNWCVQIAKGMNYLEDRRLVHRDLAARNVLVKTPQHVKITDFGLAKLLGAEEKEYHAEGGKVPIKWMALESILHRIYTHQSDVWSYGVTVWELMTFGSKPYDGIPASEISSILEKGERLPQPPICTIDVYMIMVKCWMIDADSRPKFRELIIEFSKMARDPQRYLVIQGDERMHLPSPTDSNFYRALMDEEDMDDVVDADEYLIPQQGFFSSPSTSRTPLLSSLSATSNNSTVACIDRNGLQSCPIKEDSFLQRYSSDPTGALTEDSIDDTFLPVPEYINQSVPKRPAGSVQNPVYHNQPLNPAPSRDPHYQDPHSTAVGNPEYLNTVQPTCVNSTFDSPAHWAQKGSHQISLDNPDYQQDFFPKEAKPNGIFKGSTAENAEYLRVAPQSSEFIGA

Row | SMILES | IC50 [1] [nM] | IC50 [2] [nM] | IC50 [3] [nM] | IC50 [4] [nM]
1 | C#Cc1cc(=O)[nH]c2nc(Nc3ccc(N4CCN(C)CC4)c(CNC(=O)C=C)c3)ncc12 [Example 201] | < 500 | > 3000 | 500 to 1000 | < 1000
2 | C#Cc1cc(=O)n(C2CCCC2)c2nc(Nc3cccc(N(C)[C@H]4C[C@H](CS(C)(=O)=O)C4)c3)ncc12 [Example 205] | > 3000 | > 3000 | > 3000 | < 1000
3 | C#Cc1cc(=O)n(C2CCCC2)c2nc(Nc3cccc(N(C)[C@H]4CC[C@H](CS(C)(=O)=O)CC4)c3)ncc12 [Example 206] | > 3000 | > 3000 | > 3000 | < 1000
4 | C#Cc1cc(=O)n(C)c2nc(Nc3ccc(N4CCN(C)CC4)c(OCCC)c3)ncc12 [Example 207, 5-Ethynyl-8-methyl-2-((4-(4-methylpiperazin-1-yl)-3-propoxyphenyl)amino)pyrido[2,3-d]pyrimidin-7(8H)-one] | < 500 | 500 to 1000 | < 500 | < 1000
5 | C#Cc1cc(=O)n(C)c2nc(Nc3ccc(N4CCN(C)CC4)c(OCCC4CCCC4)c3)ncc12 [Example 209, 2-((3-(2-Cyclopentylethoxy)-4-(4-methylpiperazin-1-yl)phenyl)amino)-5-ethynyl-8-methylpyrido[2,3-d]pyrimidin-7(8H)-one] | < 500 | < 500 | < 500 | < 1000
6 | C#Cc1cc(=O)n(Cc2ccn(C)n2)c2nc(Nc3ccc(N4CCN(C)CC4)c(OCCC4CCCC4)c3)ncc12 [Example 210, 2-((3-(2-Cyclopentylethoxy)-4-(4-methylpiperazin-1-yl)phenyl)amino)-5-ethynyl-8-((1-methyl-1H-pyrazol-3-yl)methyl)pyrido[2,3-d]pyrimidin-7(8H)-one] | < 500 | > 3000 | < 500 | < 1000
7 | C#Cc1cc(=O)n(C)c2nc(Nc3ccc(N4CCN(C)CC4)c(OCC4CCCC4)c3)ncc12 [Example 211, 2-((3-(Cyclopentylmethoxy)-4-(4-methylpiperazin-1-yl)phenyl)amino)-5-ethynyl-8-methylpyrido[2,3-d]pyrimidin-7(8H)-one] | < 500 | > 3000 | < 500 | < 1000
8 | C#Cc1cc(=O)n(C)c2nc(Nc3ccc(N4CCN(C)CC4)c(OCCCC4CCCC4)c3)ncc12 [Example 212, 2-((3-(3-Cyclopentylpropoxy)-4-(4-methylpiperazin-1-yl)phenyl)amino)-5-ethynyl-8-methylpyrido[2,3-d]pyrimidin-7(8H)-one] | < 500 | > 3000 | < 500 | < 1000
9 | C#Cc1cc(=O)n(C)c2nc(Nc3ccc(N4CCN(C)CC4)c(OCCC4CCCCC4)c3)ncc12 [Example 213, 2-((3-(2-Cyclohexylethoxy)-4-(4-methylpiperazin-1-yl)phenyl)amino)-5-ethynyl-8-methylpyrido[2,3-d]pyrimidin-7(8H)-one] | < 500 | 1000 to 3000 | 500 to 1000 | < 1000
10 | C#Cc1cc(=O)n(C)c2nc(Nc3ccc(N4CCN(C)CC4)c(OC4CCCC4)c3)ncc12 [Example 215, 2-((3-(Cyclopentyloxy)-4-(4-methylpiperazin-1-yl)phenyl)amino)-5-ethynyl-8-methylpyrido[2,3-d]pyrimidin-7(8H)-one] | < 500 | 1000 to 3000 | < 500 | < 1000
11 | C#Cc1cc(=O)n(C)c2nc(Nc3ccc(N4CCN(C)CC4)c(OCCC(C)C)c3)ncc12 [Example 216, 5-Ethynyl-2-((3-(isopentyloxy)-4-(4-methylpiperazin-1-yl)phenyl)amino)-8-methylpyrido[2,3-d]pyrimidin-7(8H)-one] | < 500 | 1000 to 3000 | < 500 | < 1000
12 | C#Cc1cc(=O)n(C)c2nc(Nc3ccc(N4CCN(C)CC4)c(NC(=O)CC4CCCC4)c3)ncc12 [Example 217, 2-Cyclopentyl-N-(5-((5-ethynyl-8-methyl-7-oxo-7,8-dihydropyrido[2,3-d]pyrimidin-2-yl)amino)-2-(4-methylpiperazin-1-yl)phenyl)acetamide] | < 500 | 1000 to 3000 | < 500 | < 1000
13 | C#Cc1cc(=O)n(C)c2nc(Nc3ccc(N4CCN(C)CC4)c(S(=O)(=O)NCC4CCCC4)c3)ncc12 [Example 218] | 1000 to 3000 | > 3000 | > 3000 | < 1000
14 | C#Cc1cc(=O)n(C)c2nc(Nc3ccc(N4CCN(C)CC4)c(NC(=O)NC4CCCC4)c3)ncc12 [Example 219, 3-Cyclopentyl-1-[5-({5-ethynyl-8-methyl-7-oxopyrido[2,3-d]pyrimidin-2-yl}amino)-2-(4-methylpiperazin-1-yl)phenyl]urea] | 500 to 1000 | > 3000 | 500 to 1000 | < 1000

The next lines start with the values.

Row | IC50 [1] [nM] | IC50 [2] [nM] | IC50 [3] [nM] | IC50 [4] [nM] | SMILES
15 | < 500 | > 3000 | 500 to 1000 | > 10000 | C#Cc1cc(=O)n2c3nc(ncc13)Nc1cccc(c1)OCCCC2 [Example 193, 1^5-Ethynyl-1^7,1^8-dihydro-4-oxa-2-aza-1(2,8)-pyrido[2,3-d]pyrimidina-3(1,3)-benzenacyclooctaphan-1^7-one]
16 | < 500 | < 500 | < 500 | < 1000 | C#Cc1c(C)c(=O)n2c3nc(ncc13)Nc1ccc(N3CCN(C)CC3)c(c1)OCCCC2 [Example 194, 1^5-Ethynyl-1^6-methyl-3^4-(4-methylpiperazin-1-yl)-1^7,1^8-dihydro-4-oxa-2-aza-1(2,8)-pyrido [2,3-d]pyrimidina-3(1,3)-benzenacyclooctaphan-1^7-one]
17 | 500 to 1000 | > 3000 | > 3000 | < 1000 | C#Cc1cc(=O)n2c3nc(ncc13)Nc1cccc(c1)COC/C=C\C2 [Example 195, (Z)-1^5-ethynyl-1^7,1^8-dihydro-5-oxa-2-aza-1(2,8)-pyrido[2,3-d]pyrimidina-3(1,3)-benzenacyclononaphan-7-en-1^7-one]
18 | > 3000 | > 3000 | > 3000 | > 10000 | C#Cc1cc(=O)n2c3nc(ncc13)Nc1ccc(N3CCN(C)CC3)c(c1)COCCC2 [Example 196, 1^5-Ethynyl-34-(4-methylpiperazin-1-yl)-1^7, 1^8-dihydro-5-oxa-2-aza-1(2,8)-pyrido[2,3-d]pyrimidina-3(1,3)-benzenacyclooctaphan-1^7-one]
19 | 1000 to 3000 | > 3000 | 1000 to 3000 | > 10000 | C#Cc1cc(=O)n2c3nc(ncc13)Nc1ccc(N3CCN(C)CC3)c(c1)CC(=O)NCC2 [Example 197, 1^5-Ethynyl-3^4-(4-methylpiperazin-1-yl)-1^7,1^8-dihydro-2,6-diaza-1(2,8)-pyrido[2,3-d]pyrimidina-3(1,3)-benzenacyclooctaphane-1^7,5-dione]
20 | 500 to 1000 | > 3000 | < 500 | > 10000 | C#Cc1cc(=O)n2c3nc(ncc13)Nc1ccc(N3CCN(C)CC3)c(c1)NCCCC2 [Example 198, 1^5-Ethynyl-3^4-(4-methylpiperazin-1-yl)-1^7, 1^8-dihydro-2,4-diaza-1(2,8)-pyrido[2,3-d]pyrimidina-3(1,3)-benzenacyclooctaphan-1^7-one]
21 | > 3000 | > 3000 | > 3000 | > 10000 | C#Cc1cc(=O)n2c3nc(ncc13)Nc1ccc(N3CCN(C)CC3)c(c1)CNCCC2 [Example 199, 1^5-Ethynyl-3^4-(4-methylpiperazin-1-yl)-1^7,1^8-dihydro-2,5-diaza-1(2,8)-pyrido[2,3-d]pyrimidina-3(1,3)-benzenacyclooctaphan-1^7-one]
22 | < 500 | < 500 | < 500 | < 1000 | C#Cc1cc(=O)n2c3nc(ncc13)Nc1ccc(N3CCN(C)CC3)c(c1)OCCCCC2 [Example 200, 1^5-Ethynyl-34-(4-methylpiperazin-1-yl)-1^7,1^8-dihydro-4-oxa-2-aza-1(2,8)-pyrido[2,3-d]pyrimidina-3(1,3)-benzenacyclononaphan-17-one]
23 | < 500 | 1000 to 3000 | < 500 | < 1000 | C#Cc1cc(=O)n(C)c2nc(Nc3ccc(N4CCN(C)CC4)c(OC)c3)ncc12 [Example 208, 5-Ethynyl-2-((3-methoxy-4-(4-methylpiperazin-1-yl)phenyl)amino)-8-methylpyrido[2,3-d]pyrimidin-7(8H)-one]
24 | < 500 | 1000 to 3000 | < 500 | < 1000 | C#Cc1cc(=O)n(C)c2nc(Nc3ccc(N4CCN(C)CC4)c(OCCc4ccccc4)c3)ncc12 [Example 214, 5-Ethynyl-8-methyl-2-((4-(4-methylpiperazin-1-yl)-3-phenethoxyphenyl)amino)pyrido[2,3-d]pyrimidin-7(8H)-one]
